Columns and labels:
Experiment in all cases: KINOMEscan competition binding
Conditions in all cases: compound 1.0 µM
NEK1 (human) = NEK1 (human) (UniProt Q96PY6)
SGK3 (human) = SGK3 (human) (UniProt Q96BR1)
CSK (human) = CSK (human) (UniProt P41240)
ACVRL1 (human) = ACVRL1 (human) (UniProt P37023)
ROCK1 (human) = ROCK1 (human) (UniProt Q13464)
DYRK1B (human) = DYRK1B (human) (UniProt Q9Y463)
SRC (human) = SRC (human) (UniProt P12931)
PKN1 (human) = PKN1 (human) (UniProt Q16512)
CSNK1E (human) = CSNK1E (human) (UniProt P49674)
MAPK6 (human) = MAPK6 (human) (UniProt Q16659)
PRKX (human) = PRKX (human) (UniProt P51817)
TGFBR1 (human) = TGFBR1 (human) (UniProt P36897)
FYN (human) = FYN (human) (UniProt P06241)
MAP4K2 (human) = MAP4K2 (human) (UniProt Q12851)
HCK (human) = HCK (human) (UniProt P08631)
ERBB2 (human) = ERBB2 (human) (UniProt P04626)
GSK3B (human) = GSK3B (human) (UniProt P49841)
LYN (human) = LYN (human) (UniProt P07948)
CAMK2A (human) = CAMK2A (human) (UniProt Q9UQM7)
[1] = system: EGFR (human), P00533 [T790M]
RPS6KB1 (human) = RPS6KB1 (human) (UniProt P23443)
BRSK1 (human) = BRSK1 (human) (UniProt Q8TDC3)
FRK (human) = FRK (human) (UniProt P42685)
OXSR1 (human) = OXSR1 (human) (UniProt O95747)
CSNK1G1 (human) = CSNK1G1 (human) (UniProt Q9HCP0)
CAMK1D (human) = CAMK1D (human) (UniProt Q8IU85)
PLK2 (human) = PLK2 (human) (UniProt Q9NYY3)
NEK4 (human) = NEK4 (human) (UniProt P51957)
CDK17 (human) = CDK17 (human) (UniProt Q00537)
MAPK14 (human) = MAPK14 (human) (UniProt Q16539)
CDK14 (human) = CDK14 (human) (UniProt O94921)
[2] = system: EIF2AK4 KD2 (human), Q9P2K8 [S808G]
EPHA6 (human) = EPHA6 (human) (UniProt Q9UF33)
NEK11 (human) = NEK11 (human) (UniProt Q8NG66)
MAP3K11 (human) = MAP3K11 (human) (UniProt Q16584)
TLK1 (human) = TLK1 (human) (UniProt Q9UKI8)
CRK2 (P.falciparum) = CRK2 (P.falciparum) (UniProt P61075)
NEK7 (human) = NEK7 (human) (UniProt Q8TDX7)
EPHA3 (human) = EPHA3 (human) (UniProt P29320)
[3] = system: EGFR (human), P00533 [L861Q]
MAP2K1 (human) = MAP2K1 (human) (UniProt Q02750)
YSK4 (human) = YSK4 (human) (UniProt Q56UN5)
HIPK1 (human) = HIPK1 (human) (UniProt Q86Z02)

Chain of CDK14 (human) (O94921 whole entry, looked up): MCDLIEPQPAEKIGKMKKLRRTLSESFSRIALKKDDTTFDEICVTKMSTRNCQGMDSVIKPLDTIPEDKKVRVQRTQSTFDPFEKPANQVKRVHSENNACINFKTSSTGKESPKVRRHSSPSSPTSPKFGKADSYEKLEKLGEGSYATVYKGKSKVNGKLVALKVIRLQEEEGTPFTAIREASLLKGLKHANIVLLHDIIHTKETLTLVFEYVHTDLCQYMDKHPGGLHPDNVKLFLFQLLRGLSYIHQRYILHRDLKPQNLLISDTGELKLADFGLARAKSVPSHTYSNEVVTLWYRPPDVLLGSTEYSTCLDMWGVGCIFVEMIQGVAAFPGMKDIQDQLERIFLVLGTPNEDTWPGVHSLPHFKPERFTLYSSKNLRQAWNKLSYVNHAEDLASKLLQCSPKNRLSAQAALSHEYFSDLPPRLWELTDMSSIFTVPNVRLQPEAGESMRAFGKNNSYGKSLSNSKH
Chain of CAMK2A (human) (Q9UQM7 whole entry, looked up): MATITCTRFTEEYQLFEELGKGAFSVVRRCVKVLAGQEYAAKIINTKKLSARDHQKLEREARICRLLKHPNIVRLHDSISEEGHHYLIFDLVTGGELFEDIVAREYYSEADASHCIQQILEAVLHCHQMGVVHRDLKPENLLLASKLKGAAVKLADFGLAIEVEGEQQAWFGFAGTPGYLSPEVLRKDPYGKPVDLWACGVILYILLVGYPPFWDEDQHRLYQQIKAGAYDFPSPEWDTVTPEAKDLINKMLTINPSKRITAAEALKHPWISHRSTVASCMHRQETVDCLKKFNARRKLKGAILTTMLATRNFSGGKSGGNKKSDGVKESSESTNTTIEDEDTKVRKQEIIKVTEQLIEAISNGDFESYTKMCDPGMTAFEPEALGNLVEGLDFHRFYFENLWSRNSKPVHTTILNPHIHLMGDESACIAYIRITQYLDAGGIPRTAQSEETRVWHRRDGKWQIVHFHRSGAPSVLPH
Chain of MAPK14 (human) (Q16539 whole entry, looked up): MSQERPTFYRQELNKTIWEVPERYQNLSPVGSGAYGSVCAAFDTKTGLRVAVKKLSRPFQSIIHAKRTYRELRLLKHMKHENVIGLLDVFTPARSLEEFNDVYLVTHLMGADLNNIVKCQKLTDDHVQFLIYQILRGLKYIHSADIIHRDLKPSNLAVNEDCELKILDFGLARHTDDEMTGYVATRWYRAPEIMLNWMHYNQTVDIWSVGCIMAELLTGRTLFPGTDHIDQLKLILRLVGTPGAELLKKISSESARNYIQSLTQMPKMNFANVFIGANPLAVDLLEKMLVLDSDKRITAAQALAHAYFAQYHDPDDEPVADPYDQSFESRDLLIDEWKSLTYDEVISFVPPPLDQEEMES
Chain of CRK2 (P.falciparum) (P61075 whole entry, looked up): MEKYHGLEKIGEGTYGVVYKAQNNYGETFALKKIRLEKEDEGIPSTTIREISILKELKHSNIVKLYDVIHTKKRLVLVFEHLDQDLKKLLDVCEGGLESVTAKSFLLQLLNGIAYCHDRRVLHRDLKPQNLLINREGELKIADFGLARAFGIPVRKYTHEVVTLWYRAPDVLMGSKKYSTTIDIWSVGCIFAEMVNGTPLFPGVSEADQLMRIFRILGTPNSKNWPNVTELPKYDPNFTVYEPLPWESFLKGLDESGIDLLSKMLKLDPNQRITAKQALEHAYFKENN
Chain of CSNK1E (human) (P49674 whole entry, looked up): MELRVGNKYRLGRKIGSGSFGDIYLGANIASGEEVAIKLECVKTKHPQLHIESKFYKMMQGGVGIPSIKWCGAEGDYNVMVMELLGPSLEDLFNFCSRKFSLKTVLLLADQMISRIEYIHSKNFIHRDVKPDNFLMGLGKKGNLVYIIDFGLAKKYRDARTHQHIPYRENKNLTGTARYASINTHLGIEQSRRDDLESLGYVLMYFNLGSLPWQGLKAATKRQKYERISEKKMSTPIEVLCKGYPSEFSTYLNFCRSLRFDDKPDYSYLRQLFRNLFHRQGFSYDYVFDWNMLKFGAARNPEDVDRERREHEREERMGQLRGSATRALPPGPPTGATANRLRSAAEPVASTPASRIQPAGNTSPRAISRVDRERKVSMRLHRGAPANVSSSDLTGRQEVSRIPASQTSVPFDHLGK
Chain of MAPK6 (human) (Q16659 whole entry, looked up): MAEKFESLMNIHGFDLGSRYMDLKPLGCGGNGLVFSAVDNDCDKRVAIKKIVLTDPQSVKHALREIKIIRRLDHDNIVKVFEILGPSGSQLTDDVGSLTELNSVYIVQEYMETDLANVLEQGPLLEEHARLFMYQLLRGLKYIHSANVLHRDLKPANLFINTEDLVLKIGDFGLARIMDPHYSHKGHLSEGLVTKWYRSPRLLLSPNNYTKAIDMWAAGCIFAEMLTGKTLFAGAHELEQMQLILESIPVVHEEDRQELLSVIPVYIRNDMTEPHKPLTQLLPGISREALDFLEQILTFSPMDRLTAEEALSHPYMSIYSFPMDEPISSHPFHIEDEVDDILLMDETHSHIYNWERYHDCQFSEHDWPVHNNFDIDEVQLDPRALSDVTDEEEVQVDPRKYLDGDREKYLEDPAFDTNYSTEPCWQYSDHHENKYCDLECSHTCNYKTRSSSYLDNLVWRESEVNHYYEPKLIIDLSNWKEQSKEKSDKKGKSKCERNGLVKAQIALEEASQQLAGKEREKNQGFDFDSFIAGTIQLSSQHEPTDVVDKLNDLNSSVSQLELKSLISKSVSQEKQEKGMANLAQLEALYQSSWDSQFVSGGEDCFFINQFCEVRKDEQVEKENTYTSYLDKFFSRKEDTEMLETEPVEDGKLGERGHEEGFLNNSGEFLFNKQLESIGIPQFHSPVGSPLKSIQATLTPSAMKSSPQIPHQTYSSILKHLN
Chain of FYN (human) (P06241 whole entry, looked up): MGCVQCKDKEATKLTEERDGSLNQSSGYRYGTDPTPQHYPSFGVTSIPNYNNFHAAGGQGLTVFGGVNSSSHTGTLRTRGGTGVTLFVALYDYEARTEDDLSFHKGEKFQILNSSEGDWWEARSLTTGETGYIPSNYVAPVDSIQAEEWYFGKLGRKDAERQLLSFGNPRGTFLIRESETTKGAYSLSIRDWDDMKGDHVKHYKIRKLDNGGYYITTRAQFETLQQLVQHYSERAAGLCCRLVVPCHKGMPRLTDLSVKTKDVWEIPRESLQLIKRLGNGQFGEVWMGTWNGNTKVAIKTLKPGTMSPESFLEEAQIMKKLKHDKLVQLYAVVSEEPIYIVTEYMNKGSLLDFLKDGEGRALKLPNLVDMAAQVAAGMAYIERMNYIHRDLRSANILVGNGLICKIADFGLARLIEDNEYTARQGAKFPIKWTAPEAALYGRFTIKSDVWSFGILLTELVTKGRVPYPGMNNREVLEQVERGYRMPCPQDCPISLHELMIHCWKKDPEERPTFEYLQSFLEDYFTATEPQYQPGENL
Chain of MAP3K11 (human) (Q16584 whole entry, looked up): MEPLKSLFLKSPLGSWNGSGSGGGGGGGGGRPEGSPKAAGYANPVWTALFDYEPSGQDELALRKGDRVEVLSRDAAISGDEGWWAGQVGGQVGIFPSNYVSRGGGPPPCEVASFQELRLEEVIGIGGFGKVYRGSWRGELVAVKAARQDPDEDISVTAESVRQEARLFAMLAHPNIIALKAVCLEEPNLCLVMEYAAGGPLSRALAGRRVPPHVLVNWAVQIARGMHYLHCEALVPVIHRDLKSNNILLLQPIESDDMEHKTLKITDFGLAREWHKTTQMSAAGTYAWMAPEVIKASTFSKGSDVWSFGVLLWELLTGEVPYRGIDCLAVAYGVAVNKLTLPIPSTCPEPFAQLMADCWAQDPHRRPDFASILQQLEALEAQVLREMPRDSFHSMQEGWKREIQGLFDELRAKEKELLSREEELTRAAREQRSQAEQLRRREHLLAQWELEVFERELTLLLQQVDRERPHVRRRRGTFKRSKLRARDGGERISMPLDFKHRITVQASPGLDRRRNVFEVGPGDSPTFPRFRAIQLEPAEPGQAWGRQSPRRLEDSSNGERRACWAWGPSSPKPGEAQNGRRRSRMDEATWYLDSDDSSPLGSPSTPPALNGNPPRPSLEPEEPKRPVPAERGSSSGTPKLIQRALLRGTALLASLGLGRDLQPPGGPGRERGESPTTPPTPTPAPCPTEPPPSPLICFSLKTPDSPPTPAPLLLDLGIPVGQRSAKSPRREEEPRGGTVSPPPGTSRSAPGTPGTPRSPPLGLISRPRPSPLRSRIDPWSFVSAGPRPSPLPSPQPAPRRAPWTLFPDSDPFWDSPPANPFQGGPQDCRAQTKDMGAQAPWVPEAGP
Chain of TGFBR1 (human) (P36897 whole entry, looked up): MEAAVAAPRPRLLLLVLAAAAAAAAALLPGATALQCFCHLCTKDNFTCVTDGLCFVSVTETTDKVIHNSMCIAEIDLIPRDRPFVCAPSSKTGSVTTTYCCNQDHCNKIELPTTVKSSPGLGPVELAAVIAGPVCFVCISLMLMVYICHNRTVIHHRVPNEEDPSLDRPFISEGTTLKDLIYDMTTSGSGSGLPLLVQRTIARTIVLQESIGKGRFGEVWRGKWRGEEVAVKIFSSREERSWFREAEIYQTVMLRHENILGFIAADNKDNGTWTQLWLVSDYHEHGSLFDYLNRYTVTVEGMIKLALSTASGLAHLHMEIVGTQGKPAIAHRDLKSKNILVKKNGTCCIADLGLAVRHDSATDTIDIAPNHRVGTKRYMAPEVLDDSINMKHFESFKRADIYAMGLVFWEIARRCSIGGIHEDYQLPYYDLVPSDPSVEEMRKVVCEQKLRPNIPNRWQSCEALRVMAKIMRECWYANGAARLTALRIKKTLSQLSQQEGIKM
Chain of PRKX (human) (P51817 whole entry, looked up): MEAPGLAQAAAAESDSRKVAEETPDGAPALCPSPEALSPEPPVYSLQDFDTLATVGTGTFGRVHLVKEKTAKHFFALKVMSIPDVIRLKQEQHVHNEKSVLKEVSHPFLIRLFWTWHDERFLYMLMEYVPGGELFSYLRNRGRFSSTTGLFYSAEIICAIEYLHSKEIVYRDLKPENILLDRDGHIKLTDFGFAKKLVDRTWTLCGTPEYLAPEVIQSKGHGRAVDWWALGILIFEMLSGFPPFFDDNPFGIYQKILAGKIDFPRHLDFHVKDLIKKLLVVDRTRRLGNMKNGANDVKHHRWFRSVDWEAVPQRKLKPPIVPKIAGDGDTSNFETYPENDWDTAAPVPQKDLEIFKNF

Cc1cc(NC(=O)c2cccc(NC(=O)/C=C/CN(C)C)c2)ccc1Nc1nccc(-c2cccnc2)n1
kinase still bound, per cent of control (NEK1 (human)): 81%
kinase still bound, per cent of control (SGK3 (human)): 48%
kinase still bound, per cent of control (CSK (human)): 100%
kinase still bound, per cent of control (ACVRL1 (human)): 96%
kinase still bound, per cent of control (ROCK1 (human)): 63%
kinase still bound, per cent of control (DYRK1B (human)): 100%
kinase still bound, per cent of control (SRC (human)): 87%
kinase still bound, per cent of control (PKN1 (human)): 94%
kinase still bound, per cent of control (CSNK1E (human)): 70%
kinase still bound, per cent of control (MAPK6 (human)): 37%
kinase still bound, per cent of control (PRKX (human)): 0%
kinase still bound, per cent of control (TGFBR1 (human)): 89%
kinase still bound, per cent of control (FYN (human)): 78%
kinase still bound, per cent of control (MAP4K2 (human)): 67%
kinase still bound, per cent of control (HCK (human)): 100%
kinase still bound, per cent of control (ERBB2 (human)): 82%
kinase still bound, per cent of control (GSK3B (human)): 100%
kinase still bound, per cent of control (LYN (human)): 87%
kinase still bound, per cent of control (CAMK2A (human)): 100%
kinase still bound, per cent of control [1]: 100%
kinase still bound, per cent of control (RPS6KB1 (human)): 100%
kinase still bound, per cent of control (BRSK1 (human)): 100%
kinase still bound, per cent of control (FRK (human)): 100%
kinase still bound, per cent of control (OXSR1 (human)): 89%
kinase still bound, per cent of control (CSNK1G1 (human)): 100%
kinase still bound, per cent of control (CAMK1D (human)): 100%
kinase still bound, per cent of control (PLK2 (human)): 79%
kinase still bound, per cent of control (NEK4 (human)): 79%
kinase still bound, per cent of control (CDK17 (human)): 100%
kinase still bound, per cent of control (MAPK14 (human)): 100%
kinase still bound, per cent of control (CDK14 (human)): 88%
kinase still bound, per cent of control [2]: 100%
kinase still bound, per cent of control (EPHA6 (human)): 100%
kinase still bound, per cent of control (NEK11 (human)): 99%
kinase still bound, per cent of control (MAP3K11 (human)): 91%
kinase still bound, per cent of control (TLK1 (human)): 98%
kinase still bound, per cent of control (CRK2 (P.falciparum)): 90%
kinase still bound, per cent of control (NEK7 (human)): 100%
kinase still bound, per cent of control (EPHA3 (human)): 67%
kinase still bound, per cent of control [3]: 100%
kinase still bound, per cent of control (MAP2K1 (human)): 94%
kinase still bound, per cent of control (YSK4 (human)): 65%
kinase still bound, per cent of control (HIPK1 (human)): 100%

Reference: the kinase profiling compilation of Christmann-Franck et al. (2016)
